Among the data in PubChem BioAssay AID1159565 (GlaxoSmithKline (GSK), 2015) are IC50 values, retold here.

Calls of active or inactive are those of the source. No rule for the calls is given here.

The assay concerns T. cruzi-infected H9C2 cardiomyocytes, high-content imaging. In words: anti-T. cruzi activity in infected cardiomyocytes – imaging, H9C2 host cardiomyocytes, host toxicity (AID 1159565).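 Also: infected cells incubated 72 h after plating.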
The mark [1] stands for this setting: measured here: H9C2 host cell toxicity.
Where [2] appears, read: measured here: amastigotes per cell.

By IC50 is commonly meant the concentration that gives 50% inhibition. As for `NC(=O)c1ccccc1Nc1nc(NC2CCCCC2)nc2[nH]ccc12`, the IC50 is 1000 nM. In addition, under setting [1], the IC50 was found to be 25000 nM. Also, the concentration for half-maximal inhibition (IC50) under setting [2] was 1000 nM.
For the molecule `CC(C)(C)c1csc(NC(=O)c2ccc([N+](=O)[O-])s2)n1`, the IC50 was 320 nM. The molecule also came in with an IC50 under setting [1] of 13000 nM. The molecule further registered an IC50 under setting [2] of 200 nM.
Regarding `CN(CCOc1ccc(Cl)cc1)Cc1nc(N)nc(N(C)C)n1`, the IC50 is 10000 nM. In addition, the IC50 under setting [1] is above 50000 nM. The IC50 under setting [2] came to 7900 nM.
The matching figures for `COc1ccc(S(=O)(=O)NCc2ccc(-c3ccc(CN(C)CCO)cc3)cc2)cc1`: 2500 nM, above 50000 nM and 1300 nM.
The matching figures for `O=C(NCCc1csc(-c2ccc(F)cc2)n1)c1ccco1`: 1600 nM, above 50000 nM and 1300 nM.
As to `COc1ccc(NC(=O)c2ccc(NC(=O)CN(c3ccccc3C)S(C)(=O)=O)cc2)cc1`, the IC50 was 25000 nM. Moreover, under setting [1], the IC50 turned out to be 25000 nM. The molecule further registered an IC50 under setting [2] of 20000 nM.
In the case of `COc1ccc(C2=NCC(CSc3nnc(-c4ccc5c(c4)OCO5)o3)S2)cc1` (stereo not drawn), the IC50 was 500 nM. This molecule returned an IC50 under setting [1] above 50000 nM. This molecule also registered a concentration for half-maximal inhibition (IC50) under setting [2] of 320 nM.
The matching figures for `CCc1ccc2nc(NC(=O)c3cc(N4CCOCC4)ccn3)sc2c1`: 790 nM, 40000 nM and 500 nM.
The matching figures for `COc1cc(C(C)C)c(S(C)(=O)=O)cc1C(=O)N1CCN(c2ccccc2Cl)CC1`: 2500 nM, 20000 nM and 2000 nM.
The matching figures for `O=c1[nH]c(C=Cc2cccc(OCCOc3ccccc3)c2)nc(O)c1[N+](=O)[O-]`: 200 nM, above 50000 nM and 160 nM.
As to `COc1cccc2sc(CN(C)C(=O)C3CNCCN3c3ccc(F)cc3)c(C)c12` (stereo not drawn), the half-inhibitory concentration (IC50) was 200 nM. Under setting [1], this molecule had an IC50 of 7900 nM. Further, the IC50 under setting [2] was 160 nM.
The matching figures for `CCC(CC)C(=O)Nc1ccc(-c2nnc(-c3ccc(OC)cc3)o2)cc1`: 13000 nM, above 50000 nM and 4000 nM.
The matching figures for `COc1ccc2nccc([C@H](O)CN3CC[C@H](NC(=O)c4ccc(Br)cc4)[C@@H](O)C3)c2n1`: 1600 nM, 2000 nM and 160 nM.
`COc1ccc(Cl)cc1CC(=O)Nc1n[nH]c(-c2ccccn2)n1`: the IC50 was > 50000 nM (inactive). Further, the half-inhibitory concentration (IC50) under setting [1] is above 50000 nM. Also, the IC50 under setting [2] was found to be 10000 nM.
For `CC(C)S(=O)(=O)c1ccc(-c2cnc(N)c3cc(-c4ccnc(N)n4)ccc23)cc1`, the IC50 is 40000 nM. Moreover, under setting [1], the IC50 was found to be 500 nM. For the same molecule, the IC50 under setting [2] amounted to 13000 nM.
The matching figures for `CCN(CC)c1ccc(S(=O)(=O)N(CC)CC)c2nonc12`: 50000 nM, above 50000 nM and 20000 nM.
The matching figures for `CCOc1cc(NCCCN2CCN(C)CC2)c2ncccc2c1`: 1300 nM, 32000 nM and 1000 nM.
The matching figures for `COCCn1c(-c2ccc3c(c2)OCO3)cnc1NCc1ccccc1OC`: 20000 nM, 40000 nM and 7900 nM.
As for `CC(Cn1ccnc1)NC(=O)C=Cc1ccc(Cl)cc1` (stereo not drawn), the half-maximal inhibitory concentration (IC50) is 1000 nM. This molecule displayed an IC50 under setting [1] above 50000 nM. Under setting [2], this molecule showed an IC50 of 630 nM.
The matching figures for `N#Cc1c(Oc2cccc(Cl)c2)cccc1[N+](=O)[O-]`: 630 nM, 16000 nM and 130 nM.
Take `NC(=O)c1cc(NC(=O)c2ccccc2COc2ccccc2)ccc1Cl`: the IC50 was 32000 nM. Under setting [1], this molecule displayed a 50% inhibitory concentration (IC50) above 50000 nM. The same molecule came in with a half-inhibitory concentration (IC50) under setting [2] of 25000 nM.
As to `Cc1nc2c(-c3ncn[nH]3)cc(NC(=O)Cc3ccccc3)cn2c1C`, the IC50 was 1000 nM. The molecule further gave an IC50 under setting [1] of 6300 nM. Under setting [2], this molecule gave an IC50 of 790 nM.
With `c1ccc(CCNCc2cncc3nc(-c4cnccn4)n(C4CCCCC4)c23)cc1`, the IC50 is 130 nM. For the same molecule, the IC50 under setting [1] was above 50000 nM. Moreover, the IC50 under setting [2] is 130 nM.
As to `COc1ccc(NS(=O)(=O)c2cc(-c3cc(C)[nH]n3)ccc2C)cc1OC`, the IC50 was 2000 nM. Besides, the IC50 under setting [1] is above 50000 nM. Moreover, the IC50 under setting [2] stood at 1300 nM.
Regarding `N#Cc1cc([N+](=O)[O-])ccc1NC1CCCCCC1`, the IC50 was 2000 nM. The molecule also came in with an IC50 under setting [1] above 50000 nM. The molecule also had an IC50 under setting [2] of 1300 nM.
The matching figures for `O=C(COc1nn(-c2ccccc2)c2ncccc12)NCc1ccccc1`: > 50000 nM (inactive), above 50000 nM and 32000 nM.
The matching figures for `COc1ccc(OC)c2c(=O)c(Cc3ccccc3)c(C)[nH]c12`: 500 nM, above 50000 nM and 130 nM.
The matching figures for `CCNc1cc(-c2ccccn2)nc(Nc2ccccc2)n1`: 3200 nM, 250 nM and 3200 nM.
`COc1cc(OC)cc(C(NS(=O)(=O)c2ccc(Cl)c(C(F)(F)F)c2)c2nccn2C)c1` (stereo not drawn): the IC50 was 6300 nM. The same molecule returned an IC50 under setting [1] of 10000 nM. Under setting [2], this molecule gave an IC50 of 3200 nM.
The matching figures for `Cc1cc(NC(=O)C2CCCCC2)n(-c2nc3c(c(=O)[nH]2)CCC3)n1`: 500 nM, 2000 nM and 160 nM.
For the molecule `Cc1nn(-c2ccccc2)nc1CNC(=O)CN(Cc1ccccn1)Cc1ccccn1`, the IC50 is 10000 nM. Under setting [1], the 50% inhibitory concentration (IC50) is 63000 nM. Under setting [2], this molecule showed an IC50 of 3200 nM.
The matching figures for `CCCc1cc(N)nc(-c2cc(CCC)cc(N)n2)c1`: 630 nM, 200 nM and 500 nM.
The matching figures for `Cc1cccnc1NC(=O)c1cccc(OCc2c(C)noc2C)c1`: 50000 nM, 2500 nM and 40000 nM.
The matching figures for `CC(C)c1cc(C(=O)N2CCCC(c3cc4ncccc4[nH]3)C2)on1` (stereo not drawn): 3200 nM, above 50000 nM and 1000 nM.
On to `Cc1ccc(Nc2nc(-c3ccccn3)cc(N3CCCC(O)C3)n2)cc1` (stereo not drawn), for which the IC50 was 6300 nM. Also, the IC50 under setting [1] came to 500 nM. The IC50 under setting [2] was found to be 2500 nM.
The matching figures for `CC(=O)NC1(c2ccccc2)CCN(CC(=O)Nc2ccccc2-c2ccccc2)CC1`: 7900 nM, above 50000 nM and 1600 nM.
On to `CCCn1c(NC(=O)Cc2ccc(Cl)cc2)nc2ccccc21`, for which the IC50 is 2000 nM. Under setting [1], this molecule showed an IC50 above 50000 nM. Also, the IC50 under setting [2] stood at 1300 nM.
The matching figures for `Cc1nc2c(-c3nc(-c4ccc(N)cc4)n[nH]3)cccn2c1C`: > 50000 nM (inactive), 10000 nM and above 50000 nM.
The matching figures for `O=C(O)[C@H]1C[C@@H]1c1ccc(-c2ccc(CN(CCc3ccccn3)C(=O)C3CCC3)cc2)cc1`: 32000 nM, above 50000 nM and 32000 nM.
With `Cc1c(Nc2cc(C3CC3)[nH]n2)ccc(C#N)c1Cl`, the IC50 was 25000 nM. Under setting [1], the IC50 was 10000 nM. For the same molecule, the IC50 under setting [2] came to 16000 nM.
The matching figures for `CS(=O)(=O)c1ccc(Nc2nccc(-c3cnn4ncccc34)n2)cc1`: 25000 nM, 5000 nM and 1000 nM.
The matching figures for `Cc1[nH]nc(C(F)(F)F)c1NC(=O)CCn1cc(Cl)c([N+](=O)[O-])n1`: 25000 nM, above 50000 nM and 6300 nM.
The matching figures for `COc1ccc2ncc(F)c(NC(=O)C3(O)CCC(NCc4ccc5c(c4)OCCO5)CC3)c2n1` (stereo not drawn): 130 nM, 32000 nM and 160 nM.
Regarding `Nc1cc(-c2ccc3ncnc(N4CCOCC4)c3c2)cnc1N`, the IC50 was 5000 nM. The molecule also yielded an IC50 under setting [1] of 3200 nM. Under setting [2], the IC50 came to 1600 nM.
The matching figures for `COc1ccc(C2CC(c3ccccc3Cl)=NN2C(=O)CNC(=O)C2CCCC2)cc1` (stereo not drawn): 3200 nM, above 50000 nM and 2000 nM.
The matching figures for `CNc1nc(C)nc(N2CCc3cc(C(=O)NCc4ccc(-c5ccn[nH]5)cc4Cl)ccc32)n1`: > 50000 nM (inactive), 20000 nM and above 50000 nM.
The matching figures for `Cn1nccc1-c1cc(OC(CN)c2ccccc2)cnc1-c1ccco1` (stereo not drawn): 100 nM, above 50000 nM and 100 nM.
As to `Cc1ccc(NC(C)C(=O)Nc2ccc(C#N)cc2)cc1S(=O)(=O)N1CCCCC1` (stereo not drawn), the IC50 was 7900 nM. The molecule also yielded an IC50 under setting [1] above 50000 nM. The same molecule registered an IC50 under setting [2] of 7900 nM.
For `COc1ccccc1-n1c(SCC(=O)Nc2ccc3c(c2)OCO3)nc2c(c1=O)SCC2`, the IC50 is 16000 nM. Also, the IC50 under setting [1] was above 50000 nM. The molecule further came in with an IC50 under setting [2] of 7900 nM.
The matching figures for `CC(C)(C)c1cc(NC2CC2)nc(-c2ccccn2)n1`: 1600 nM, 320 nM and 1300 nM.
Take `CNS(=O)(=O)c1ccccc1Nc1nc(Nc2cc(C)nn2C)ncc1Cl`: the IC50 is 790 nM. Under setting [1], the IC50 is 250 nM. Moreover, the IC50 under setting [2] came out at 500 nM.
The matching figures for `O=C(Nc1cccc(Cl)c1)N1CCCCC1c1cccnc1` (stereo not drawn): 200 nM, above 50000 nM and 200 nM.
The matching figures for `CC1CN(S(=O)(=O)c2ccc(NC(=O)c3cc(C4CC4)nc4c3cnn4C(C)C)cc2)CC(C)O1` (stereo not drawn): 790 nM, above 50000 nM and 630 nM.
As to `O=C(Nc1nc2cc(Cl)ccc2o1)c1cccc(Cl)c1`, the IC50 is 790 nM. Also, the IC50 under setting [1] was 2500 nM. Moreover, the IC50 under setting [2] is 630 nM.
As to `Cc1ccc(S(=O)(=O)Cn2nnnc2C(c2cccnc2)N2CCN(c3ccccc3)CC2)cc1` (stereo not drawn), the IC50 is 320 nM. The molecule also gave an IC50 under setting [1] above 50000 nM. The same molecule came in with an IC50 under setting [2] of 320 nM.
As to `c1cncc(CN(Cc2ccco2)Cc2cn[nH]c2-c2cccs2)c1`, the IC50 was 50 nM. In addition, the IC50 under setting [1] was above 50000 nM. This molecule also displayed an IC50 under setting [2] of 40 nM.
